# According to patent US20240423937A1, “METHODS OF TREATING PAIN AND USES THEREOF” (University of Tennessee Research Foundation, priority 2021, published 2024):
# Entries after “also recorded” stand apart in the source; their conditions may differ. Like-named read-outs stand apart in the source and are kept apart here.
# What was measured:
# Dutch belted rabbits = experiment: Single topical dose IOP lowering in Dutch belted rabbits; assay type: in vivo, rabbit; conditions: single drop
# Method: Non-limiting exemplary data: We made a discovery that can make PRG effective in treating vision loss in glaucoma. In addition to its presence in the anterior segment (FIG. 2), CACNA2D1 is also localized to RGCs (FIGS. 3A&B), as well as the ON (FIG. 3C). […] At 24 hours after dosing, IOP is still reduced by >20%.
# Moreover, the combined effect of all three layers of our W/O/W ME is critical for enhancing the efficacy of PRG. […] Using this same model, we will evaluate our optimized formulations from Test 1.1.
# Research Design and Methods: Dutch belted rabbits (Envigo Rabbitry; formerly Covance) will be used in this single-dose design study. Rabbits from this rabbitry can have higher baseline IOP values than those purchased from other rabbitries. Rabbits (equally balanced between males and females) will be acclimated to handling and IOP measurements for at least seven days before initiation of the study. Slit-lamp biomicroscopic and fundoscopic examinations will be performed before and after the study. Our top three formulations from Test 1.1 will be tested in this model using our methods^12. The IOP of both eyes will be measured using a rebound tonometer (Tono-Pen AVIA Vet, Reichert) immediately before the formulation application (baseline, 8 am) and at hourly time intervals after application until the IOP returns to baseline. Using a sterile micropipette tip, thirty microliters of the formulation containing PRG ME or blank control will be instilled topically into one eye of each rabbit, while the fellow eye will receive the formulation vehicle, and therefore serve as controls. Rabbits will be dosed daily at 8 am for 21 days, and IOP collected at 8 am (immediately pre-dosing) and at the time at which the maximum IOP reduction is measured (Tmax) using our methods^12. Curves similar to FIG. 16 will be generated. Biocompatibility of the antioxidant-containing formulations will be assessed using with slit lamp biomicroscopy as in FIG. 17. […]
# BXD29 mice = experiment: Daily topical dosing of BXD29 mice for 6 weeks (IOP, optic nerve axons); assay type: in vivo, mouse
# Text: Objective: An obstacle in this study is the in vivo assessment of any direct neuroprotective effects of PRG that are independent of IOP lowering. […] These characteristics make BXD29 ideal for evaluating the direct neuroprotective properties of PRG on RGCs by eliminating indirect effects that would be mediated through IOP reduction.
# We have evidence to show, without wishing to be bound by theory, that topical dosing with our PRG ME is neuroprotective to RGC axons in the ON. We dosed BXD29 mice daily with PRG ME beginning at 5 weeks of age (FIG. 9A) before ON degeneration was marked. […] In contrast, ON from mice dosed with unmedicated ME had loss of axon profiles and increased areas of debris (FIG. 9C). The studies will evaluate the role of PRG as a RGC neuroprotectant and define its cellular mechanism of action.
# [1] = Topical pregabalin IOP lowering, aqueous / without microemulsion; assay type: in vivo
# Text: As a bidirectional component of our study, we corroborated an imputed single-nucleotide polymorphism (SNP) in CACNA2D1 within a human POAG population. Immunohistochemistry studies in humans, rabbits, and mice indicate that CACNA2D1 is located in the ciliary body (CB) and outflow structures (FIG. 2), both of which can influence IOP. […] These findings are consistent with earlier findings that implicated Ca^2+ flux as a regulator of IOP through actions in both the CB and outflow structures^13,14. This is highly significant because few approved IOP-lowering drugs act on both the inflow and outflow facilities, and that we can be able to clarify the implicated but yet unproven role of Ca^2+ flux on inflow and outflow control. On the therapeutic side, because the amplitude and duration of PRG-mediated IOP reduction in our studies were limited (17% IOP reduction that returns to baseline at 6 hr)^15, we then engineered a new topical extended release microemulsion (ME) formulation to increase PRG efficacy and duration of action^12. […] These findings indicate the development of PRG as a new class of glaucoma therapeutics with a MOA distinct from current approved IOP-lowering medications.
# However, the amplitude and duration of response were limited and unpractical for clinical use. To increase the efficacy of PRG as an IOP-lowering drug, we engineered a new microemulsion topical formulation^12. Our formulation was designed as a water-in-oil-in water microemulsion with 40% and 60% of the PRG in the innermost and outermost aqueous phases, respectively. Compartmentalization of PRG in two aqueous phases supports both a rapid onset and long duration of IOP-lowering action. Drug release from the outermost aqueous phase is fast, allowing for rapid IOP reduction. To be released from the innermost aqueous phase, however, PRG must pass through two interfaces—the inner water/oil interface and the outer oil/water interface—after which it must diffuse through the viscous polymer solution that constitutes the outmost aqueous phase of our multilayered ME (FIG. 12). Collectively the movement across both interfaces slows movement of PRG from our formulation and supports the extended IOP-lowering effect. After diffusion from the outermost polymer, PRG is available for absorption through the cornea. To ensure that the formulation will remain on the corneal surface for enough time to allow for the sustained release of the drug, the outermost hydrogel layer is prepared from Carbopol 981, which has excellent bio-adhesive properties.
# CACNA2D1 = CACNA2D1 (Homo sapiens, UniProt P54289); conditions: cited from earlier work
# CACNA2D2 = CACNA2D2 (Homo sapiens, UniProt Q9NY47); conditions: cited from earlier work
# [2] = system: γ-aminobutyric acid (GABA) receptors; conditions: cited from earlier work
# [3] = not told; cited from earlier work
# [4] = topical aqueous / initial PRG formulation
# [5] = with versus without the microemulsion, species not stated
# Sequence of CACNA2D1 (P54289 25-1103): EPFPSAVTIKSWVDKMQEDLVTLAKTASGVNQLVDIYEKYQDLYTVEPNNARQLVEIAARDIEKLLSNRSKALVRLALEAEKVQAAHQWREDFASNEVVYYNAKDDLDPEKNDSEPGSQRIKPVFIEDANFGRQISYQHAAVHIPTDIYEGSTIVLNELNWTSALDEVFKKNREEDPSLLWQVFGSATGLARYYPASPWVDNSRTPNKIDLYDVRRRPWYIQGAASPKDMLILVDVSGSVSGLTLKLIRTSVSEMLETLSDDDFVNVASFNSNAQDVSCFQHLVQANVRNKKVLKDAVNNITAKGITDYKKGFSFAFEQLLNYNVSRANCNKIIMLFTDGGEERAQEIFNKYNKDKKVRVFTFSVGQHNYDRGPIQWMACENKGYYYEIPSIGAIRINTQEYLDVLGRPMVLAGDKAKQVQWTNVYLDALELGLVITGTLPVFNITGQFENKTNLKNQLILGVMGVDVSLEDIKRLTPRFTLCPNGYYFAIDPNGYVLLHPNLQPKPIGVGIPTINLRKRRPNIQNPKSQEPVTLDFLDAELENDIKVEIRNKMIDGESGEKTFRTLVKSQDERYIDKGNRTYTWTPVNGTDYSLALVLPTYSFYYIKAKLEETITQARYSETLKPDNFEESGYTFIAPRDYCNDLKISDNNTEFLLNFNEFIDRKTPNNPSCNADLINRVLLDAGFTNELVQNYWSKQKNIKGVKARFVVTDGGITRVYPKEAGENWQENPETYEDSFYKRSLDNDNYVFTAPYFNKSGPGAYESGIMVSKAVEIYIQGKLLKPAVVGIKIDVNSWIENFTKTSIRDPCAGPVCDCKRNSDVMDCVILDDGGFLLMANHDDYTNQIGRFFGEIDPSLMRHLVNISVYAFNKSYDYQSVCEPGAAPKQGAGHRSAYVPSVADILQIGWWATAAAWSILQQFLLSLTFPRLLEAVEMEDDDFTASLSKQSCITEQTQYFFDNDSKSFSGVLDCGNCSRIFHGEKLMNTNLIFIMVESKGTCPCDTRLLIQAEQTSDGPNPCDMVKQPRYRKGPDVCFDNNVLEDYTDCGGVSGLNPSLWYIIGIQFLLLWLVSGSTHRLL
# Sequence of CACNA2D2 (Q9NY47 19-1150, species assumed): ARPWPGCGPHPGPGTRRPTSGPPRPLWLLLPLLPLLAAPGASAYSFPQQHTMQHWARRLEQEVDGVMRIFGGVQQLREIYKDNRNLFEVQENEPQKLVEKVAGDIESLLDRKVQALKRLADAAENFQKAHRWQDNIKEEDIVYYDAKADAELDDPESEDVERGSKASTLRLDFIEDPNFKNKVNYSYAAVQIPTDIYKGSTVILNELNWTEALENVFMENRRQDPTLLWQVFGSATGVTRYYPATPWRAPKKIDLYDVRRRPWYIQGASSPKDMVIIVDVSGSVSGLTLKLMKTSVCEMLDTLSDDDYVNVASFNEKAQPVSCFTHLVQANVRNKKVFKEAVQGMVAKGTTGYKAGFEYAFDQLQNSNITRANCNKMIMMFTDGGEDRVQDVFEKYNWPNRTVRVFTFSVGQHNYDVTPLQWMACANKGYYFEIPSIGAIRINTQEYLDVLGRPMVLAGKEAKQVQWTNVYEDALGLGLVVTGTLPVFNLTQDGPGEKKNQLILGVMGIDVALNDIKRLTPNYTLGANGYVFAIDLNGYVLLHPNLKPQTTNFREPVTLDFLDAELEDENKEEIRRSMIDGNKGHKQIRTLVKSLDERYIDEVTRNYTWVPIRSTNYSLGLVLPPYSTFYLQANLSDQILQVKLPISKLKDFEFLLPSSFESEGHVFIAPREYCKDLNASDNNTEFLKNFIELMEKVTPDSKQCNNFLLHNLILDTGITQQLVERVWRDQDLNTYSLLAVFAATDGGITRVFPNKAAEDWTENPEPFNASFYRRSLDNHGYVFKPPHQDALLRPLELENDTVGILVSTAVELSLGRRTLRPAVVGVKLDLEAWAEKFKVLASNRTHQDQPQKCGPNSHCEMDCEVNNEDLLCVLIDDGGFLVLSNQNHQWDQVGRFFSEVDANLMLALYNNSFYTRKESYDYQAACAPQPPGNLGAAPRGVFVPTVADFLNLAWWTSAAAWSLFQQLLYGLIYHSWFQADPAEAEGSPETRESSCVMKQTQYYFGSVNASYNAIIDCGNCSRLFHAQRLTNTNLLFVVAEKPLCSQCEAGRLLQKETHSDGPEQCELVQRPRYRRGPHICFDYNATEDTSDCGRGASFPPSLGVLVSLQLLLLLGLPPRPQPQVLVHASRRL
smiles,measurement,setting,value
CC(C)C[C@H](CN)CC(=O)O [pregabalin],AUC of IOP reduction,Dutch belted rabbits,38 mmHg·hr
same,maximal % reduction in IOP,Dutch belted rabbits,30%
same,time at which IOP returns to baseline,Dutch belted rabbits,10 h
same,optic nerve axon preservation,BXD29 mice; daily topical dosing for 6 weeks from 5 weeks of age,prevents degeneration of axons in the ON even in the absence of a reduction in IOP
same,IOP response of BXD29 mice,"BXD29 mice; topical, up to 6 weeks of daily dosing",unresponsive
same,IOP reduction,[1]; [4],17%
same,return of IOP to baseline after dosing,[1]; [4],6 h
same,dose dependence of IOP lowering,[1]; topical dosing,dose dependent manner
same,IOP lowering,[1]; [5],about 20%
same,return of IOP to baseline after dosing,[1]; [5],8 to 10 h
same,affinity / specificity for CACNA2D1,CACNA2D1,antagonist with specificity for CACNA2D1 and high specificity for CACNA2D1 and bind
same,affinity / specificity for CACNA2D1,CACNA2D1; listed as PRG,high affinity and specificity; also recorded: binds with high affinity
same,affinity / specificity for CACNA2D1,CACNA2D1; listed as Pregabalin,high affinity and specificity
same,binding to CACNA2D2,CACNA2D2,bind
same,binding to GABA receptors,[2],does not bind
same,membrane permeability,[3],high membrane permeability
